For data set [1] the following is noted: microsomes.
Data set [2] addresses Mtb Lpd (Mycobacterium tuberculosis (strain ATCC 25618 / H37Rv), UniProt P9WHH9). The format is biochemical.
Where [3] appears, read: 30 min preincubation, read-out: LPD IC50 (μM) w/ 30 min preincubation.

Experimental findings from patent US20240132480A1, “INHIBITORS OF MYCOBACTERIUM TUBERCULOSIS LIPOAMIDE DEHYDROGENASE” (Cornell University, priority 2021, published 2024) are described below.

Read-outs that look alike come from different tables or passages of the source.

On to `CN(CC(=O)Nc1ccn(C)c(=O)c1)S(=O)(=O)c1cc(C(F)F)cc2cn[nH]c12` [Example 37], for which the “Human Liver Microsome Stability” value in data set [1] came out at 22 µL/min/mg. The IC50 in data set [2] (read-out: LPD IC50) worked out at 0.0474 µM. For `Cc1cc(S(=O)(=O)N(C)CC(=O)Nc2ccc3c(c2)N(C)CCO3)c2[nH]ncc2c1` [Example 31], in that order: 91 µL/min/mg and 0.0165 µM.

On to `COc1ccc(NC(=O)CN(C)S(=O)(=O)c2cc(C)cc3c(C)n[nH]c23)cc1C` [Example 9], for which the “Human Liver Microsome Stability” value in data set [1] is more than 768 µL/min/mg. Moreover, the IC50 in data set [2] (read-out: LPD IC50) amounted to 0.0273 µM. For `Cc1cc(S(=O)(=O)N2CC[C@H]2C(=O)Nc2ccn(C)c(=O)c2)c2[nH]ncc2c1` [Example 27, (S)-1-((5-methyl-1H-indazol-7-yl)sulfonyl)-N-(1-methyl-2-oxo-1,2-dihydropyridin-4-yl)azetidine-2-carboxamide], in that order: -8 µL/min/mg and 0.0545 µM. For `Cc1cc(S(=O)(=O)N2CC[C@H]2C(=O)Nc2ccc3ccncc3c2)c2[nH]ncc2c1` [Example 71] the same measures were 132 µL/min/mg and 0.0513 µM.

As to `Cc1cc(S(=O)(=O)N(C)CC(=O)Nc2ccc3c(c2)OCCN3C2COC2)c2[nH]ncc2c1` [Example 94], in data set [1], the “Human Liver Microsome Stability” value was 45 µL/min/mg. For the same compound, in data set [2] (read-out: LPD IC50), the IC50 came to 0.0275 µM. For `Cc1cc(S(=O)(=O)N2CC[C@H]2C(=O)Nc2ccn(C)c(=O)c2)c2[nH]c(C#N)cc2c1` [Example 187, (S)-1-((2-cyano-5-methyl-1H-indol-7-yl)sulfonyl)-N-(1-methyl-2-oxo-1,2-dihydropyridin-4-yl)azetidine-2-carboxamide] the same measures were -2 µL/min/mg and 0.135 µM. For the compound `Cc1cc(S(=O)(=O)N(C)CC(=O)Nc2ccc3c(c2)OCCN3C2COC2)c2[nH]c(C#N)cc2c1` [Example 189], the “Human Liver Microsome Stability” value in data set [1] came out at 142 µL/min/mg. Further, the IC50 in data set [2] (setting [3]) came out at 0.018 µM; in data set [2] (read-out: LPD IC50), 0.076 µM. Turning to `Cc1cc(S(=O)(=O)N(C)CC(=O)Nc2ccn3nccc3c2)c2[nH]ncc2c1` [Example 25], in data set [1], the “Human Liver Microsome Stability” value amounted to 275 µL/min/mg. The IC50 in data set [2] (read-out: LPD IC50) was 0.0204 µM. For `Cc1cc(S(=O)(=O)N2CC[C@H]2C(=O)Nc2ccc3c(c2)OCCN3C2CCOCC2)c2n[nH]cc2c1` [Example 144] the same measures were 166 µL/min/mg and 0.0379 µM.

Take `Cc1cc(NC(=O)CN(C)S(=O)(=O)c2c(C)c(C)cc3cn[nH]c23)ccc1N1CCOCC1` [Example 19]: the “Human Liver Microsome Stability” value in data set [1] amounted to 253 µL/min/mg. In data set [2] (read-out: LPD IC50), the IC50 came to 0.0469 µM. In the case of `Cn1ccc(NC(=O)[C@@H]2CCN2S(=O)(=O)c2cc(C(F)F)cc3cn[nH]c23)cc1=O` [Example 152, (S)-1-((5-(difluoromethyl)-1H-indazol-7-yl)sulfonyl)-N-(1-methyl-2-oxo-1,2-dihydropyridin-4-yl)azetidine-2-carboxamide], the “Human Liver Microsome Stability” value in data set [1] was -7 µL/min/mg. Further, the IC50 in data set [2] (read-out: LPD IC50) is 0.058 µM. For `Cn1ccc(NC(=O)[C@@H]2CCN2S(=O)(=O)c2cc(Cl)cc3c(F)n[nH]c23)cc1=O` [Example 148], in that order: -17 µL/min/mg and 0.04 µM. Consider `CCN(CC(=O)Nc1ccc2c(c1)OCCN2C)S(=O)(=O)c1cc(C)cc2cn[nH]c12` [Example 88], for which the “Human Liver Microsome Stability” value in data set [1] worked out at 46 µL/min/mg. On to `Cc1cc(S(=O)(=O)N2CCC(C(=O)Nc3ccn(C)c(=O)c3)C2)c2[nH]ncc2c1` (stereo not shown) [Example 97], for which, in data set [1], the “Human Liver Microsome Stability” value is -5 µL/min/mg. The IC50 in data set [2] (read-out: LPD IC50) was found to be 0.0419 µM.

With `Cc1cc(S(=O)(=O)N2CCC[C@H]2C(=O)Nc2ccn(C)c(=O)c2)c2[nH]ncc2c1` [Example 7], the “Human Liver Microsome Stability” value in data set [1] turned out to be 18 µL/min/mg. Further, the IC50 in data set [2] (read-out: LPD IC50) is 0.0513 µM.

As for `CC(=O)Nc1cccc(NC(=O)CN(C)S(=O)(=O)c2cc(C)cc3cc(C#N)[nH]c23)c1` [Example 217], the “Human Liver Microsome Stability” value in data set [1] came to 177 µL/min/mg. In data set [2] (setting [3]), the IC50 is 0.028 µM.

As for `CC#CCNC(=O)CN(C)S(=O)(=O)c1cc(C)cc2cc(C#N)[nH]c12` [Example 210], the “Human Liver Microsome Stability” value in data set [1] stood at 39 µL/min/mg.

On to `Cc1cc(S(=O)(=O)N(C)CC(=O)Nc2nc3ccccc3o2)c2n[nH]cc2c1` [Example 76], for which the “Human Liver Microsome Stability” value in data set [1] was determined as 274 µL/min/mg. Besides, the IC50 in data set [2] (read-out: LPD IC50) came to 0.0994 µM. For `Cc1cc(S(=O)(=O)N2CC[C@H]2C(=O)Nc2ccc3ncccc3c2)c2[nH]ncc2c1` [Example 87], in that order: 111 µL/min/mg and 0.035 µM. For `Cc1cc(S(=O)(=O)N2CC[C@@H](C(=O)Nc3ccc4c(c3)OCCN4C3COC3)C2)c2[nH]ncc2c1` [Example 123], in that order: 23 µL/min/mg and 0.0286 µM.

In the case of `Cn1ccc(NC(=O)[C@@H]2CCN2S(=O)(=O)c2cc(Cl)cc3cn[nH]c23)cc1=O` [Example 149], the “Human Liver Microsome Stability” value in data set [1] stood at 14 µL/min/mg. Further, the IC50 in data set [2] (read-out: LPD IC50) worked out at 0.061 µM.

In the case of `CC#CCNC(=O)CN(C)S(=O)(=O)c1cc(C)cc2cn[nH]c12` [Example 204], the “Human Liver Microsome Stability” value in data set [1] turned out to be 19 µL/min/mg. The IC50 in data set [2] (setting [3]) turned out to be 0.024 µM; in data set [2] (read-out: LPD IC50) it was 0.045 µM. In the case of `Cc1cc(S(=O)(=O)N(C)CC(=O)Nc2ccn3cccc3c2)c2[nH]ncc2c1` [Example 46, 2-((N,5-dimethyl-1H-indazole)-7-sulfonamido)-N-(imidazo[1,5-a]pyridin-7-yl)acetamide], the “Human Liver Microsome Stability” value in data set [1] was determined as 4 µL/min/mg. The IC50 in data set [2] (read-out: LPD IC50) was found to be 0.0067 µM. For `Cc1cc(S(=O)(=O)N2CC[C@H]2C(=O)Nc2ccc3c(c2)OCCN3C2COC2)c2n[nH]cc2c1` [Example 143], in that order: 84 µL/min/mg and 0.0362 µM.

As to `O=C(Nc1ccc2c(c1)OCCN2C1CCOCC1)[C@@H]1CCN1S(=O)(=O)c1cc(Cl)cc2c(F)n[nH]c12` [Example 162], the “Human Liver Microsome Stability” value in data set [1] came to 91 µL/min/mg. For the same compound, the IC50 in data set [2] (read-out: LPD IC50) came out at 0.059 µM. For `O=C(Nc1ccc(N2CCOCC2)c(Cl)c1)[C@H]1CCN1S(=O)(=O)c1cc(C(F)F)cc2cn[nH]c12` [Example 191, (2R)—N-(3-chloro-4-morpholino-phenyl)-1-[[5-(difluoromethyl)-1H-indazol-7-yl]sulfonyl]azetidine-2-carboxamide] the same measures were 98 µL/min/mg and more than 10 µM. For `Cc1cc(S(=O)(=O)N(C)CC(=O)Nc2ccn(C3CCOCC3)c(=O)c2)c2[nH]ncc2c1` [Example 100], in that order: 6 µL/min/mg and 0.05 µM. For `CCN(CC(=O)Nc1ccc(OC)c(Cl)c1)S(=O)(=O)c1cc(C)cc2cn[nH]c12` [Example 15, N-(3-chloro-4-methoxyphenyl)-2-((N-ethyl-5-methyl-1H-indazole)-7-sulfonamido)acetamide] the same measures were 528 µL/min/mg and 0.0417 µM.

Regarding `Cc1cc(S(=O)(=O)N(C)CC(=O)Nc2ccc(C3CC3)c(Cl)c2)c2[nH]c(C#N)cc2c1` [Example 215], the “Human Liver Microsome Stability” value in data set [1] is 203 µL/min/mg. Moreover, the IC50 in data set [2] (setting [3]) amounted to 0.036 µM.

As for `Cc1cc(S(=O)(=O)N2CC[C@H]2C(=O)Nc2ccn(C)c(=O)c2)c2[nH]nc(Cl)c2c1` [Example 178], the “Human Liver Microsome Stability” value in data set [1] was -13 µL/min/mg. For the same compound, the IC50 in data set [2] (read-out: LPD IC50) amounted to 0.211 µM. With `CN(CC(=O)Nc1ccn(C)c(=O)c1)S(=O)(=O)c1cc(Cl)cc2cc(C#N)[nH]c12` [Example 225], the “Human Liver Microsome Stability” value in data set [1] stood at 11 µL/min/mg. Further, the IC50 in data set [2] (setting [3]) was found to be 0.035 µM. As for `Cc1cc(S(=O)(=O)N(C)CC(=O)Nc2ccn(C)c(=O)c2)c2[nH]ncc2c1` [Example 6], in data set [1], the “Human Liver Microsome Stability” value is -11 µL/min/mg. For the compound `O=C(Nc1ccc2c(c1)OCCN2C1COC1)[C@@H]1CCN1S(=O)(=O)c1cc(C(F)F)cc2cn[nH]c12` [Example 180, (S)-1-((5-(difluoromethyl)-1H-indazol-7-yl)sulfonyl)-N-(4-(oxetan-3-yl)-3,4-dihydro-2H-benzo[b][1,4]oxazin-7-yl)azetidine-2-carboxamide], the “Human Liver Microsome Stability” value in data set [1] is 61 µL/min/mg. `CN(CC(=O)Nc1ccn(C)c(=O)c1)S(=O)(=O)c1cc(F)cc2cn[nH]c12` [Example 93]: the “Human Liver Microsome Stability” value in data set [1] turned out to be 6 µL/min/mg. Same read-out and setting: next, `COc1ccc(NC(=O)CN(C)S(=O)(=O)c2cc(C)cc3c2NC(=O)C3)cc1Cl` [Example 2, N-(3-chloro-4-methoxyphenyl)-2-((N,5-dimethyl-2-oxoindoline)-7-sulfonamido)acetamide]: 490 µL/min/mg; `CC(=O)N1CCOc2cc(NC(=O)CN(C)S(=O)(=O)c3cc(C)cc4cn[nH]c34)ccc21` [Example 90]: 18 µL/min/mg. For `Cc1cc(S(=O)(=O)N(C)CC(=O)Nc2cc(=O)n(C)cn2)c2[nH]c(C#N)cc2c1` [Example 222], in data set [2] (setting [3]), the IC50 worked out at 0.027 µM. Turning to `Cc1cc(S(=O)(=O)N(C)CC(=O)Nc2ccc3c(c2)OCCN3C)c2[nH]nc(C)c2c1` [Example 92], the “Human Liver Microsome Stability” value in data set [1] is 19 µL/min/mg. For `Cc1cc(S(=O)(=O)N(C)CC(=O)NC2(C)CCCCC2)c2n[nH]cc2c1` [Example 127], in data set [2] (read-out: LPD IC50), the IC50 was 1.14 µM. On the same count and under the same terms, to `Cc1cc(S(=O)(=O)N2CCC[C@@H](C(=O)Nc3ccn(C)c(=O)c3)C2)c2[nH]ncc2c1` [Example 96, (R)-1-((5-methyl-1H-indazol-7-yl)sulfonyl)-N-(1-methyl-2-oxo-1,2-dihydropyridin-4-yl)piperidine-3-carboxamide] belongs 0.112 µM. Same read-out and setting: to `Cc1cc(S(=O)(=O)N(C)CC(=O)N[C@H]2CCCOC2)c2[nH]ncc2c1` [Example 112] belongs 0.109 µM.

As for `Cc1cc(S(=O)(=O)N2CC[C@H]2C(=O)N[C@@H]2CCCOC2)c2[nH]ncc2c1` [Example 142, (2S)-1-[(5-methyl-1H-indazol-7-yl)sulfonyl]-N-[(3R)-tetrahydropyran-3-yl]azetidine-2-carboxamide], the IC50 in data set [2] (read-out: LPD IC50) turned out to be 0.47 µM. Still for that read-out and setting: next, `Cc1cc(S(=O)(=O)N2CC[C@H]2C(=O)Nc2ccc3ccccc3n2)c2[nH]ncc2c1` [Example 84]: 0.027 µM.
